Assay results: patent US20180319810A1, “SUBSTITUTED BRIDGED UREA ANALOGS AS SIRTUIN MODULATORS” (GlaxoSmithKline Intellectual Property (No.2) Limited, priority 2014, published 2018)

Biological target: T1, SIRT1 (Homo sapiens, UniProt Q96EB6)
T1 sequence (Q96EB6 1-747): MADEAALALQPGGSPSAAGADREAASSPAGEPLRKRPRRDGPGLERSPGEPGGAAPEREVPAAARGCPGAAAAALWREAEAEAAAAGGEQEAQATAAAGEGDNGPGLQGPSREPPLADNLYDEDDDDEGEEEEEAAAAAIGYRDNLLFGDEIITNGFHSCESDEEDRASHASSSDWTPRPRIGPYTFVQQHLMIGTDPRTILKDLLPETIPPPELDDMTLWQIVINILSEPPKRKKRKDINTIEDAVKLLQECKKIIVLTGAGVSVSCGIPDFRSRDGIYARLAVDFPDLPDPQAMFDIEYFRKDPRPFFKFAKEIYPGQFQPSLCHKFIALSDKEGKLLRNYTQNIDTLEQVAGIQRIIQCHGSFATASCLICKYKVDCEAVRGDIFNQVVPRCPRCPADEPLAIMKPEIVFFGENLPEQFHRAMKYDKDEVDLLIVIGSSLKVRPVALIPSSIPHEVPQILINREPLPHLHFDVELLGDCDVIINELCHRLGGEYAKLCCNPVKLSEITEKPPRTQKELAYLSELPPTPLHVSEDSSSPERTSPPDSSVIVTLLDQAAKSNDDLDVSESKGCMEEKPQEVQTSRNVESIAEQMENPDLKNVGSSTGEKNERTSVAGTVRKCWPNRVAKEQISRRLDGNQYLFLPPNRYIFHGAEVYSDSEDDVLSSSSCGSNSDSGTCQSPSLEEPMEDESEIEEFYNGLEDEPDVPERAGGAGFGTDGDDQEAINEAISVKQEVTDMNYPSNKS
Test: Trp mass spectrometry assay of SIRT1 activation
Type: biochemical
Conditions: Trp peptide Ac-R-H-K-K(Ac)-W-NH2 0.5 μM, 120 μM βNAD+, 10 nM SIRT1, 25 min, 25° C.
From the text: Mass spectrometry based assays were used to identify modulators of SIRT1 activity. […] The peptide was labeled with the fluorophore 5TMR (excitation 540 nm/emission 580 nm) at the C-terminus. The sequence of the peptide substrate was based on p53 with several modifications. In addition, the methionine residue naturally present in the sequence was replaced with the norleucine because the methionine may be susceptible to oxidation during synthesis and purification.
The Trp mass spectrometry assay was conducted as follows. […] The SIRT1 protein was obtained by cloning the SirT1 gene into a T7-promoter containing vector, which was then expressed in BL21(DE3) bacterial cells and purified as described in further detail below. Test compound was added at varying concentrations to this reaction mixture and the resulting reactions were monitored. After the 25 minute incubation with SIRT1, 10 μL of 10% formic acid was added to stop the reaction. The resulting reactions were sealed and frozen for later mass spec analysis. The relative SIRT1 activity was then determined by measuring the amount of O-acetyl-ADP-ribose (OAADPR) formed (or, alternatively, the amount of deacetylated Trp peptide generated) by the NAD-dependent sirtuin deacetylation reaction in the presence of varying concentrations of the test compound versus control reactions lacking the test compound.
The degree to which the test agent activated deacetylation by SIRT1 was expressed as EC1.5 (i.e., the concentration of compound required to increase SIRT1 activity by 50% over the control lacking test compound), and Percent Maximum Activation (i.e., the maximum activity relative to control (100%) obtained for the test compound).
This time point was the same as that used for test compounds and, within the linear range, the endpoint represents a change in velocity.
For the above assay, SIRT1 protein was expressed and purified as follows. The SirT1 gene was cloned into a T7-promoter containing vector and transformed into BL21(DE3). The protein was expressed by induction with 1 mM IPTG as an N-terminal His-tag fusion protein at 18° C. overnight and harvested at 30,000×g. Cells were lysed with lysozyme in lysis buffer (50 mM Tris-HCl, 2 mM Tris[2-carboxyethyl]phosphine (TCEP), 10 μM ZnCl2, 200 mM NaCl) and further treated with sonication for 10 min for complete lysis. The protein was purified over a Ni-NTA column (Amersham) and fractions containing pure protein were pooled, concentrated and run over a sizing column (Sephadex S200 26/60 global). The peak containing soluble protein was collected and run on an Ion-exchange column (MonoQ). Gradient elution (200 mM-500 mM NaCl) yielded pure protein. This protein was concentrated and dialyzed against dialysis buffer (20 mM Tris-HCl, 2 mM TCEP) overnight. The protein was aliquoted and frozen at −80° C. until further use.
“NT” means not tested; “ND” means not determinable.

Row | Structure (SMILES) | TRP Activity (EC1.5, concentration of compound required to increase SIRT1 activity by 50% over control) | TRP MAX RESP (percent maximum fold activation relative to control)
1 | O=C(Nc1cc(OC[C@@H](O)CO)ncn1)N1c2nc(-c3cccc(C(F)(F)F)c3)ncc2N2CCC[C@H]1C2 [Example 96, (9S)—N-(6-((S)-2,3-dihydroxypropoxy)pyrimidin-4-yl)-2-(3-(trifluoromethyl)phenyl)-8,9-dihydro-6H-5,9-methanopyrimido[4,5-b][1,4]diazocine-10(7H)-carboxamide] | A (EC1.5<1 μM) | A (Fold activation ≥150%)
2 | Cc1ccc(-c2ncc3c(n2)N(C(=O)Nc2cccnc2)[C@H]2CCN3C2)cn1 [Example 5, (8S)-2-(6-methylpyridin-3-yl)-N-(pyridin-3-yl)-7,8-dihydro-5,8-methanopyrimido[4,5-b][1,4]diazepine-9(6H)-carboxamide] | B (EC1.5 1-25 μM) | A (Fold activation ≥150%)
3 | O=C(Nc1ccnc(OC[C@@H](O)CO)c1)N1c2nc(-c3cccc(C(F)(F)F)c3)ncc2N2CC[C@H]1C2 [Example 32, (8S)—N-(2-((S)-2,3-dihydroxypropoxy)pyridin-4-yl)-2-(3-(trifluoromethyl)phenyl)-7,8-dihydro-5,8-methanopyrimido[4,5-b][1,4]diazepine-9(6H)-carboxamide] | A (EC1.5<1 μM) | A (Fold activation ≥150%)
4 | Cc1ncc(-c2ccnc(NC(=O)N3c4nc(C(=O)NCC(F)(F)F)ncc4N4CC[C@H]3C4)c2)o1 [Example 61, (8S)—N9-(4-(2-methyloxazol-5-yl)-pyridin-2-yl)-N2-(2,2,2-trifluoroethyl)-7,8-dihydro-5,8-methanopyrimido-[4,5-b][1,4]-diazepine-2,9(6H)-dicarboxamide] | B (EC1.5 1-25 μM) | A (Fold activation ≥150%)
5 | O=C(Nc1cnnc(OC[C@H](O)CO)c1)N1c2nc(-c3cccc(C(F)(F)F)c3)ncc2N2CCC[C@H]1C2 [Example 110, (9S)—N-(6-((R)-2,3-dihydroxypropoxy)pyridazin-4-yl)-2-(3-(trifluoromethyl)phenyl)-8,9-dihydro-6H-5,9-methanopyrimido[4,5-b][1,4]diazocine-10(7H)-carboxamide] | A (EC1.5<1 μM) | A (Fold activation ≥150%)
6 | CN(C)c1ccc(-c2ncc3c(n2)N(C(=O)Nc2ccccn2)[C@H]2CCN3C2)cn1 [Example 9, (8S)-2-(6-(dimethylamino)pyridin-3-yl)-N-(pyridin-2-yl)-7,8-dihydro-5,8-methanopyrimido[4,5-b][1,4]diazepine-9(6H)-carboxamide] | B (EC1.5 1-25 μM) | 
7 | O=C(Nc1ccnc(OC[C@H](O)CO)n1)N1c2nc(-c3cccc(C(F)(F)F)c3)ncc2N2CC[C@H]1C2 [Example 28, (8S)—N-(2-((R)-2,3-dihydroxypropoxy)pyrimidin-4-yl)-2-(3-(trifluoromethyl)phenyl)-7,8-dihydro-5,8-methanopyrimido[4,5-b][1,4]diazepine-9(6H)-carboxamide] | B (EC1.5 1-25 μM) | A (Fold activation ≥150%)
8 | Cc1nc(-c2cccc(C(F)(F)F)c2)nc2c1N1CC[C@@H](C1)N2C(=O)Nc1cncc(OC[C@H](O)CO)c1 [Example 45, (8S)—N-(5-((R)-2,3-dihydroxypropoxy)pyridin-3-yl)-4-methyl-2-(3-(trifluoromethyl)phenyl)-7,8-dihydro-5,8-methanopyrimido[4,5-b][1,4]diazepine-9(6H)-carboxamide] | A (EC1.5<1 μM) | A (Fold activation ≥150%)
9 | O=C(Nc1ccc(OC[C@@H](O)CO)cn1)N1c2nc(-c3cccc(C(F)(F)F)c3)ncc2N2CCC[C@H]1C2 [Example 98, (9S)—N-(5-((S)-2,3-dihydroxypropoxy)pyridin-2-yl)-2-(3-(trifluoromethyl)phenyl)-8,9-dihydro-6H-5,9-methanopyrimido[4,5-b][1,4]diazocine-10(7H)-carboxamide] | A (EC1.5<1 μM) | A (Fold activation ≥150%)
10 | Cn1cccc(NC(=O)N2c3nc(C(=O)NCC(F)(F)F)ncc3N3CC[C@H]2C3)c1=O [Example 2, (8S)—N9-(1-methyl-2-oxo-1,2-dihydropyridin-3-yl)-N2-(2,2,2-trifluoroethyl)-7,8-dihydro-5,8-methanopyrimido[4,5-b][1,4]diazepine-2,9(6H)-dicarboxamide] | B (EC1.5 1-25 μM) | A (Fold activation ≥150%)
11 | O=C(Nc1cncc(OC[C@H](O)CO)c1)N1c2nc(-c3cccc(C(F)(F)F)c3)ncc2N2CC[C@H]1C2 [Example 35, (8S)—N-(5-((R)-2,3-dihydroxypropoxy)pyridin-3-yl)-2-(3-(trifluoromethyl)phenyl)-7,8-dihydro-5,8-methanopyrimido[4,5-b][1,4]diazepine-9(6H)-carboxamide] | B (EC1.5 1-25 μM) | A (Fold activation ≥150%)
12 | O=C(Nc1ccccn1)N1c2nc(-c3cccc(C(F)(F)F)c3)ncc2N2CC[C@H]1C2 [Example 3, (8S)—N-(pyridin-2-yl)-2-(3-(trifluoromethyl)phenyl)-7,8-dihydro-5,8-methano pyrimido[4,5-b][1,4]diazepine-9(6H)-carboxamide] |  | A (Fold activation ≥150%)
13 | Cc1ccc(-c2nc(C)c3c(n2)N(C(=O)Nc2ccccn2)[C@H]2CCN3C2)cn1 [Example 12, (8S)-4-methyl-2-(6-methylpyridin-3-yl)-N-(pyridin-2-yl)-7,8-dihydro-5,8-methanopyrimido[4,5-b][1,4]diazepine-9(6H)-carboxamide] | B (EC1.5 1-25 μM) | A (Fold activation ≥150%)
14 | O=C(NC1CCCC1)N1c2nc(-c3cccc(C(F)(F)F)c3)ncc2N2CC[C@H]1C2 [Example 52, (8S)—N-cyclopentyl-2-(3-(trifluoromethyl)phenyl)-7,8-dihydro-5,8-methanopyrimido[4,5-b][1,4]diazepine-9(6H)-carboxamide] | B (EC1.5 1-25 μM) | A (Fold activation ≥150%)
15 | O=C(Nc1cc(OC[C@H](O)CO)ccn1)N1c2nc(-c3cccc(C(F)(F)F)c3)ncc2N2CCC[C@H]1C2 [Example 80, (9S)—N-(4-((R)-2,3-dihydroxypropoxy)pyridin-2-yl)-2-(3-(trifluoromethyl)phenyl)-8,9-dihydro-6H-5,9-methanopyrimido[4,5-b][1,4]diazocine-10(7H)-carboxamide] | A (EC1.5<1 μM) | A (Fold activation ≥150%)
